In ChEMBL document CHEMBL4406898, “Dual mode of binding of anti cancer drug epirubicin to G-quadruplex [d-(TTAGGGT)]4 containing human telomeric DNA sequence induces thermal stabilization” (Bioorg Med Chem, 2019):

What was measured:
Quadruplex DNA [1] = assay: Binding affinity to human telomeric 7 G-quadruplex DNA assessed as binding constant Kb1; assay type: nucleic-acid assay
Quadruplex DNA [2] = assay: Binding affinity to human telomeric 7 G-quadruplex DNA assessed as binding constant Kb2; assay type: nucleic-acid assay
Albumin = Albumin (Homo sapiens, UniProt P02768); assay: Binding affinity to human serum albumin assessed as binding constant after 24 hrs by absorption spectroscopy; assay type: ADME; details: isolated protein
Albumin, sequence (P02768 whole entry): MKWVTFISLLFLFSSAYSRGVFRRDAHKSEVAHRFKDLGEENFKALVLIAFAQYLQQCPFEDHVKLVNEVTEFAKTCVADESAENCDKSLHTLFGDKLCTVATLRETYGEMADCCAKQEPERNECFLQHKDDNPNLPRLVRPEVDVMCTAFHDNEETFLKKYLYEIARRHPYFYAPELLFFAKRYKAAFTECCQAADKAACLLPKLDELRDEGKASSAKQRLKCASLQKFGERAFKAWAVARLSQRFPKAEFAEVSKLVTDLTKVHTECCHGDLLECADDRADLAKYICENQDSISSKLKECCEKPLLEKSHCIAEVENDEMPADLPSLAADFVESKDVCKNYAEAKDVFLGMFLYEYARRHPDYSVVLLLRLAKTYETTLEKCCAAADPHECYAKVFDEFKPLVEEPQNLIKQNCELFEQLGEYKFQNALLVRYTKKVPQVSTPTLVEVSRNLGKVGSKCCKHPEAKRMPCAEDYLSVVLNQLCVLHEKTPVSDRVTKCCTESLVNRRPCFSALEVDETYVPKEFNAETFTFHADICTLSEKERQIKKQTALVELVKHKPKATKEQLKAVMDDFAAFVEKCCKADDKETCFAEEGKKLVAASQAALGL

Tetrahymena thermophila [3] = assay: Binding affinity to Tetrahymena thermophila telomeric 7 G-quadruplex DNA assessed as binding constant Kb1 in presence of 10 mM KCl by fluorescence spectroscopy
Tetrahymena thermophila [4] = assay: Binding affinity to Tetrahymena thermophila telomeric 7 G-quadruplex DNA assessed as binding constant Kb2 in presence of 10 mM KCl by fluorescence spectroscopy

| Structure (SMILES) | Kb (Quadruplex DNA [1]) [×10⁶ /M] | Kb (Quadruplex DNA [2]) [×10⁶ /M] | Kb (Albumin) [×10³ /M] | Kb (Tetrahymena thermophila [3]) [×10⁵ /M] | Kb (Tetrahymena thermophila [4]) [×10⁵ /M] |
| --- | --- | --- | --- | --- | --- |
| COc1cccc2c1C(=O)c1c(O)c3c(c(O)c1C2=O)C[C@@](O)(C(=O)CO)C[C@@H]3O[C@H]1C[C@H](N)[C@H](O)[C@H](C)O1.Cl [DOXORUBICIN HYDROCHLORIDE] | 1.1 | 0.6 | 3 |  |  |
| COc1cccc2c1C(=O)c1c(O)c3c(c(O)c1C2=O)C[C@@](O)(C(C)=O)C[C@@H]3O[C@H]1C[C@H](N)[C@H](O)[C@H](C)O1 |  |  |  | 6.3 | 1.3 |
